In brackets after ≈: the same amount, converted by molar mass.
Legend:
Ca channel = experiment: Cardiovascular safety pharmacology: Ca channel; type: cell-based; conditions: read-out: Ca channel IC50
mGlu7 = mGlu7 (Homo sapiens, UniProt Q14831); experiment: mGlu selectivity; type: cell-based
mGlu4 = mGlu4 (Homo sapiens, UniProt Q14833); experiment: mGlu selectivity; type: cell-based
mGlu3 = mGlu3 (Homo sapiens, UniProt Q14832); experiment: mGlu selectivity: mGlu3 antagonist activity; type: cell-based
Na channel = experiment: Cardiovascular safety pharmacology: Na channel; type: cell-based; conditions: read-out: Na channel IC50
mGlu1 = mGlu1 (Homo sapiens, UniProt Q13255); experiment: mGlu selectivity; type: cell-based
[1] = tested on: amphetamine-induced hyperlocomotion (AHL); experiment: Reversal of amphetamine-induced hyperlocomotion; type: in vivo, male, Sprague Dawley rats
mGlu2 = mGlu2 (Homo sapiens, UniProt Q14416); experiment: mGlu selectivity; type: cell-based
Solubility = type: physicochemical
mGlu8 = mGlu8 (Homo sapiens, UniProt O00222); experiment: mGlu selectivity; type: cell-based
mGlu6 = mGlu6 (Homo sapiens, UniProt O15303); experiment: mGlu selectivity; type: cell-based
human mGlu5 = human mGlu5 (Homo sapiens, UniProt P41594); experiment: Calcium mobilization assay using HEK293 expressing human mGlu5; type: cell-based
[2] = Predicted hepatic clearance; type: in vitro ADME; conditions: rat
mGlu5 = experiment: Leftward fold-shift of a full glutamate concentration-response curve; type: cell-based; conditions: human and rat receptors, equal magnitude
[3] = Predicted hepatic clearance; type: in vitro ADME; conditions: human

human mGlu5, sequence (P41594 21-1212): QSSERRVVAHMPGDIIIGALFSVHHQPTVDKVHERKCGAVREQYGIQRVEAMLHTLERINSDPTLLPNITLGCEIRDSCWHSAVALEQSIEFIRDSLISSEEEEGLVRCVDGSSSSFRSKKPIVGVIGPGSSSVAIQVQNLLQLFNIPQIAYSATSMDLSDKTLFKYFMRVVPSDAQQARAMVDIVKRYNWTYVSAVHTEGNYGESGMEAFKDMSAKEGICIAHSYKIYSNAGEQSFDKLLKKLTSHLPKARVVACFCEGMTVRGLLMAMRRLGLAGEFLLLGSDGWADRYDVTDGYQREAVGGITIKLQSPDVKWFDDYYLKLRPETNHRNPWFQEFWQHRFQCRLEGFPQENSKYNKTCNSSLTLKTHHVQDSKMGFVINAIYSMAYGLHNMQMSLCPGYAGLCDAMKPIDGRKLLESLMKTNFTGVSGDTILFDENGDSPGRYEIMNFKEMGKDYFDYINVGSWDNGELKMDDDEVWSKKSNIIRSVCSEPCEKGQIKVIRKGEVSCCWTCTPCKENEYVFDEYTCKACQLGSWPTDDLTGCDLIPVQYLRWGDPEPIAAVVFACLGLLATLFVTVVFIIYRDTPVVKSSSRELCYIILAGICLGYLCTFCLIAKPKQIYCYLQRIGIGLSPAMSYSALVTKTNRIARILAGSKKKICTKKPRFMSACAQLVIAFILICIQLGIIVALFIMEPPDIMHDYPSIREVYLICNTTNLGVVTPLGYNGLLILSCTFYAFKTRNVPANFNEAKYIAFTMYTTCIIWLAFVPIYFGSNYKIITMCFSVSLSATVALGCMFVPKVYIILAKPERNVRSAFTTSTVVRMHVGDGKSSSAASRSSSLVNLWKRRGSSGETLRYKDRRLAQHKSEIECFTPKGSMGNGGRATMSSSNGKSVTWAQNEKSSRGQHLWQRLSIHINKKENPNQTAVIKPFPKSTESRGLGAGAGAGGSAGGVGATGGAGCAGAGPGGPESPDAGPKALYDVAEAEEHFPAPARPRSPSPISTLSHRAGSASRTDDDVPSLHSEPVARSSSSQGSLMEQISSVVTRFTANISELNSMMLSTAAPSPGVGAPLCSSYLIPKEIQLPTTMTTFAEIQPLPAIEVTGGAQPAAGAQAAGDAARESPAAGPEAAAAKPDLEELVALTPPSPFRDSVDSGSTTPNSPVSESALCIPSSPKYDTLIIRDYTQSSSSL
mGlu3, sequence (Q14832 23-879): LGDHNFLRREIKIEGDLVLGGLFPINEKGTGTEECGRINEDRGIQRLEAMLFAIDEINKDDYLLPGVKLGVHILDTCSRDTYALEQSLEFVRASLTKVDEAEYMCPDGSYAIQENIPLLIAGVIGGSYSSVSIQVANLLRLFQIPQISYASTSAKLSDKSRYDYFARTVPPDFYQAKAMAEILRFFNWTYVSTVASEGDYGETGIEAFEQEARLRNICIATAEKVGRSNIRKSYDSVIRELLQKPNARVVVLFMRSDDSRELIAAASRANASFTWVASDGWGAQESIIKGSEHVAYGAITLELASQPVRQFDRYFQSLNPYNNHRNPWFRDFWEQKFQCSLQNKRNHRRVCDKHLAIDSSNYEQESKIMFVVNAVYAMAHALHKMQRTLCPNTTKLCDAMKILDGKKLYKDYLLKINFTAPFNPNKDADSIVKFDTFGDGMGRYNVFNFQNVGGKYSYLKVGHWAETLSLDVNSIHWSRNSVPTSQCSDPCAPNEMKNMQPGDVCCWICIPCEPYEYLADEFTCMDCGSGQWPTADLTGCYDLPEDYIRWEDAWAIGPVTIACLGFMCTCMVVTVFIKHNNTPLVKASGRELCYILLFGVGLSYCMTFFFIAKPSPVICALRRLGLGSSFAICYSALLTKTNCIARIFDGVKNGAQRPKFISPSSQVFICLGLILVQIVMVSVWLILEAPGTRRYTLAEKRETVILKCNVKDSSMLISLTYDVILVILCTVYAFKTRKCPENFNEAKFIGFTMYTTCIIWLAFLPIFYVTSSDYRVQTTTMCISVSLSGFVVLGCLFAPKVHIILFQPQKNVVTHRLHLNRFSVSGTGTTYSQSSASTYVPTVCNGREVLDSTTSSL
mGlu2, sequence (Q14416 19-872): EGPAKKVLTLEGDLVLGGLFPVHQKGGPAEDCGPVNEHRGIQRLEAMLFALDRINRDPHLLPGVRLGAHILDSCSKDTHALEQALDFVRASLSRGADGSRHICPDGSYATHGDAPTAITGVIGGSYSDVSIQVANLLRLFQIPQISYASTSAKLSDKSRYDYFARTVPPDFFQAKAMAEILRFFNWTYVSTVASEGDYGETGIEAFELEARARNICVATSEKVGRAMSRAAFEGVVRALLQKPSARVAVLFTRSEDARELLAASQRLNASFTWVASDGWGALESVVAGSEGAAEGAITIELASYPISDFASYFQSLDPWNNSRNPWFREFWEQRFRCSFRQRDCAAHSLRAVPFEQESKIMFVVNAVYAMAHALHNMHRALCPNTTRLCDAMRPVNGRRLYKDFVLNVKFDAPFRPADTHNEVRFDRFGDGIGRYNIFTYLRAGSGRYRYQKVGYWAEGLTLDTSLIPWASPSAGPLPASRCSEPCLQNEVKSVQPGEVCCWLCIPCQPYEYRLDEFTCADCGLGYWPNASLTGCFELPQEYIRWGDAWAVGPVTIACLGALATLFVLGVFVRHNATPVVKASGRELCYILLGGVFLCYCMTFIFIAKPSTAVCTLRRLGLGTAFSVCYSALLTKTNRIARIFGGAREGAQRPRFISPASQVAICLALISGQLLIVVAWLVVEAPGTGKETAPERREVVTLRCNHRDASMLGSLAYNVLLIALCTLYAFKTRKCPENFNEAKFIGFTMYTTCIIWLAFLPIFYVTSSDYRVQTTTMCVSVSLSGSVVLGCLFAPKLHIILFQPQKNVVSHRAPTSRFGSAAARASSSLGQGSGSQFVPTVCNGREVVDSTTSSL
mGlu8, sequence (O00222 34-908): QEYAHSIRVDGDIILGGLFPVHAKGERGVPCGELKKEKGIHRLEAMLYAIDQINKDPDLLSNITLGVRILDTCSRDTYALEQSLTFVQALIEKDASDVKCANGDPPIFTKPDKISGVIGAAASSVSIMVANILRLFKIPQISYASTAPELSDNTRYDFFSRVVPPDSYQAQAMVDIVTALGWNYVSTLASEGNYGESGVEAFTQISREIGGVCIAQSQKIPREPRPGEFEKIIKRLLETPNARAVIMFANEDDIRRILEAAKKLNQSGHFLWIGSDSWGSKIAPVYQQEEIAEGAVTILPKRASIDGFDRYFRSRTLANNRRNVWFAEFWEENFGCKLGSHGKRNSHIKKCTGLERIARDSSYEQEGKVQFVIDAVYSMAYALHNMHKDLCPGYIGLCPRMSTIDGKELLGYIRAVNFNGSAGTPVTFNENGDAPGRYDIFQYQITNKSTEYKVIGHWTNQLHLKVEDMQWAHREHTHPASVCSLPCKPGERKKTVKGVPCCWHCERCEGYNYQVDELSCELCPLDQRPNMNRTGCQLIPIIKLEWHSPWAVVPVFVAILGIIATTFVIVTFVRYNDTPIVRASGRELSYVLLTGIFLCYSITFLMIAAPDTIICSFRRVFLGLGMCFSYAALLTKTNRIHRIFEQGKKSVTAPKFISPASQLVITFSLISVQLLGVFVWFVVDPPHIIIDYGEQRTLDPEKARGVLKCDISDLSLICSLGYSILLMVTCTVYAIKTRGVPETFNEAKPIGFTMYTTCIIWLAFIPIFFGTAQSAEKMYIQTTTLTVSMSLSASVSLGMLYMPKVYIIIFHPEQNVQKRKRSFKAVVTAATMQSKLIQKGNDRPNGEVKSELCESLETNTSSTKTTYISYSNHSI
mGlu7, sequence (Q14831 35-915): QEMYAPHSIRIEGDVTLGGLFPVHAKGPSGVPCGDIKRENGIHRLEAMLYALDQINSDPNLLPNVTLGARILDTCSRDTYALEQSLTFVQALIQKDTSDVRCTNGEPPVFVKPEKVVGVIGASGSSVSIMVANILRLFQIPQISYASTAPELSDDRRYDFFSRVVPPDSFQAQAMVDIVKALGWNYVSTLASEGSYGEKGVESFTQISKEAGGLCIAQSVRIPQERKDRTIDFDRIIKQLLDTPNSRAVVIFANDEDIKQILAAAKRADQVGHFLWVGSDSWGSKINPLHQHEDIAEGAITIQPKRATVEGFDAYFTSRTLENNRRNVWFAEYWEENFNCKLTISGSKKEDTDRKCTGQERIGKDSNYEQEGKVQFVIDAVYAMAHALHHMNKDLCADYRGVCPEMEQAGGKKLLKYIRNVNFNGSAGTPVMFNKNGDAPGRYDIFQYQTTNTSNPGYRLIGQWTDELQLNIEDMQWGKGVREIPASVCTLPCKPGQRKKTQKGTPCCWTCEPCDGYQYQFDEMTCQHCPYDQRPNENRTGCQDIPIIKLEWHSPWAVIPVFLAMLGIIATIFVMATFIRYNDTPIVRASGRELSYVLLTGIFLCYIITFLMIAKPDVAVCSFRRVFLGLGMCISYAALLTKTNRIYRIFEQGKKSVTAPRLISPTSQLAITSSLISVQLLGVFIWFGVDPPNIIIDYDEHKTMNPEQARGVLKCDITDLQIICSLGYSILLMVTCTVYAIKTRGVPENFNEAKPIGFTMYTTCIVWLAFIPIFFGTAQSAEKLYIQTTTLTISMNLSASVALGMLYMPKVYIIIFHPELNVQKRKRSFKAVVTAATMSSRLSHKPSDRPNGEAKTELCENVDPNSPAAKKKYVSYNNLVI

In the case of `O=C(c1ccc(F)cc1)N1CCc2nc(COc3cccc(F)c3)oc2C1` [4b], the IC50 (Ca channel) is reported as over 10 µM, the “activity versus mGlu7” value (mGlu7) is reported as over 10 µM and the “activity versus mGlu4” value (mGlu4) is reported as over 10 µM. For the same compound, the IC50 (mGlu3) was 0.41 µM, the “mGlu3 Glu min” value (mGlu3; % Glu min) was 8% and the IC50 (Na channel) was over 10 µM. For the same compound, the “activity versus mGlu1” value (mGlu1) was over 10 µM, the “minimum effective dose in AHL” value ([1]; rat, po) was 30 mpk and the “activity versus mGlu2” value (mGlu2) was over 10 µM. The solubility (Solubility; FaSSIF) was 0.01 mg/mL (≈ 27 µM), the solubility (Solubility; SGF) was 0.01 mg/mL (≈ 27 µM) and the “solubility, fold lower than 1” value (Solubility; relative to 1) was 3 ×. For the same compound, the “activity versus mGlu8” value (mGlu8) was over 10 µM and the “activity versus mGlu6” value (mGlu6) was over 10 µM.

With `O=C(c1cc2ccccc2[nH]1)N1CCc2nc(COc3ccccc3)oc2C1` [11a] the “mGlu5 PAM activity (in words)” value (human mGlu5) was “inactive”.

With `O=C(c1c[nH]c2ccccc12)N1CCc2nc(COc3ccccc3)oc2C1` [11c] the “solubility (in words)” value (Solubility) was “poor solubility”.

For `O=C(c1n[nH]c2ccccc12)N1CCc2nc(COc3ccccc3)oc2C1` [11e], the “solubility (in words)” value (Solubility) was “poor solubility”.

In the case of `O=C(c1n[nH]c2ncccc12)N1CCc2nc(COc3ccccc3)oc2C1` [11h], the “predicted hepatic clearance CLhep” value [2] is reported as 2.16 L/h/kg, the fold-shift (mGlu5) is reported as 7.3–9.3 x and the ago-PAM activity (human mGlu5) is reported as “modest ago-PAM activity”. The ligand efficiency (human mGlu5) was 0.31, the “MED in AHL, fold higher than for 1” value ([1]; relative to 1) was 3 fold and the “predicted hepatic clearance CLhep” value [3] was 0.546 L/h/kg.

Reference: PMC4535329 (Bioorganic & medicinal chemistry letters, 2015)
